Experimental data taken from patent US9493447B2, “Optically active PDE10 inhibitor” (OMEROS CORPORATION, priority 2014, dated 2016).

Tests used:
[1] = molecular target: bovine PDE6 (Bos taurus, UniProt P11541+P23439); experiment: PDE selectivity assay, PDE6; format: biochemical
Method: (§1) The PDE assay medium consisted of (final concentrations); 50 mM Tris-HCL, pH 7.5; 8.3 mM MgCl2; 1.7 mM EGTA; 0.5 mg/mL bovine serum albumin; and substrate (H-cAMP or H-cGMP). The BSA was lyophilized powder, essentially fatty acid free, ≧96% pure from Sigma (A6003).

[2] = molecular target: Human PDE10 (Homo sapiens (Human), UniProt Q9Y233); experiment: Inhibition of Human PDE10 (Example 13, SPA assay); format: biochemical; settings: substrate 125 nM H-cGMP; all three compounds tested in the same experiment
Method: as §1

[3] = molecular target: PDE10A2 (Homo sapiens (Human), UniProt Q9Y233); experiment: PDE selectivity SPA assay, PDE10A2; format: biochemical; settings: Table 1 selectivity profile
Method: as §1

[4] = molecular target: PDE5A (Homo sapiens (Human), UniProt O76074); experiment: PDE selectivity SPA assay, PDE5A; format: biochemical; settings: substrate 37 nM H-cGMP
Method: as §1

[5] = molecular target: PDE2A (Homo sapiens (Human), UniProt O00408); experiment: PDE selectivity SPA assay, PDE2A; format: biochemical; settings: substrate 37 nM H-cGMP
Method: as §1

[6] = system: PDE10; settings: from Soderling and Beavo 2000; read-out: IC50 (50% inhibitory concentration) PDE10; cited from earlier work

Chain of Human PDE10 (Q9Y233 267-1055): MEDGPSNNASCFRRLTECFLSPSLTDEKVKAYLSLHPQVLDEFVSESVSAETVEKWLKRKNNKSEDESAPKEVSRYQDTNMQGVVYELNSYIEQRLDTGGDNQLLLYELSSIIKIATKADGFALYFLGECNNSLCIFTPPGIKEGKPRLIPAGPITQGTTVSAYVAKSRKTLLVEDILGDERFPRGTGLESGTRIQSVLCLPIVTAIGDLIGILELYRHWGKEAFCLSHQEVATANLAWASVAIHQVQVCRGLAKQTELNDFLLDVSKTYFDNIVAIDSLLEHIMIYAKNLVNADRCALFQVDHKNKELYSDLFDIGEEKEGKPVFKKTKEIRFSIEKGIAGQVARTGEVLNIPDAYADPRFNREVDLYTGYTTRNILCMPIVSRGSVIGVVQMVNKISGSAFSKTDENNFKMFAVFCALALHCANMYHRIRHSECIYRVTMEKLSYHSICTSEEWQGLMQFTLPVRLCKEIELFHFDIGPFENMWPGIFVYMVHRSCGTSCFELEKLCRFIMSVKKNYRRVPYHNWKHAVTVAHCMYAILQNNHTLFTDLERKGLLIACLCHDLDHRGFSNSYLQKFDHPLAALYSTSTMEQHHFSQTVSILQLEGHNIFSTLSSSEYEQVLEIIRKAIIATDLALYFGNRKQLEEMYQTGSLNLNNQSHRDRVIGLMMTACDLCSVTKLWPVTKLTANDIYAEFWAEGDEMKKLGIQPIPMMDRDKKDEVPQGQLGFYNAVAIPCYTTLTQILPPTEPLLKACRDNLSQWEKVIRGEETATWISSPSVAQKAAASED
Chain of PDE2A (O00408 whole entry): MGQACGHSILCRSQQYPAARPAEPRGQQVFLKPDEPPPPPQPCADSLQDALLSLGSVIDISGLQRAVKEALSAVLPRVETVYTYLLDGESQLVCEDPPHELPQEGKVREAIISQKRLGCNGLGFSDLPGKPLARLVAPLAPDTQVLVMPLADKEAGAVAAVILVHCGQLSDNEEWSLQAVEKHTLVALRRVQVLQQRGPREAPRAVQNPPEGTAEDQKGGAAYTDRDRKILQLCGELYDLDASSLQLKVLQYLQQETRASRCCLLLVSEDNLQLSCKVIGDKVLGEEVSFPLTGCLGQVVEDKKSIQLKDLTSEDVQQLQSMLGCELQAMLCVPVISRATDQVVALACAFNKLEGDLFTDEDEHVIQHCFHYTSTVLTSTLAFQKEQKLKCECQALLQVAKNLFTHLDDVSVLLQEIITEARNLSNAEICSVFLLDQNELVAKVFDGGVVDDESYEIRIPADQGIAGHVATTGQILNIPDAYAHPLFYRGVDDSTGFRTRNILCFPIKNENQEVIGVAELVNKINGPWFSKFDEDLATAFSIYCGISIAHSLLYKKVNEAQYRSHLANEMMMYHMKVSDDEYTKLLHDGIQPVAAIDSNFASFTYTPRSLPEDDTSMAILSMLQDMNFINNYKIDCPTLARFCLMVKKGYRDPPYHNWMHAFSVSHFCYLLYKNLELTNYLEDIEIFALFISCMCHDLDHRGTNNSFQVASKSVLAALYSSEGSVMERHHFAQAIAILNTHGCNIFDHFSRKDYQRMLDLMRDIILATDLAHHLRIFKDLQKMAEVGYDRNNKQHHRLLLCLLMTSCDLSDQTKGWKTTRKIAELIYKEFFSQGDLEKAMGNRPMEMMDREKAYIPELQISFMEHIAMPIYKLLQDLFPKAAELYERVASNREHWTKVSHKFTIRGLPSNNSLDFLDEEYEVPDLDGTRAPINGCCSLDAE
Chain of bovine PDE6 (P11541 2-859 limits assumed): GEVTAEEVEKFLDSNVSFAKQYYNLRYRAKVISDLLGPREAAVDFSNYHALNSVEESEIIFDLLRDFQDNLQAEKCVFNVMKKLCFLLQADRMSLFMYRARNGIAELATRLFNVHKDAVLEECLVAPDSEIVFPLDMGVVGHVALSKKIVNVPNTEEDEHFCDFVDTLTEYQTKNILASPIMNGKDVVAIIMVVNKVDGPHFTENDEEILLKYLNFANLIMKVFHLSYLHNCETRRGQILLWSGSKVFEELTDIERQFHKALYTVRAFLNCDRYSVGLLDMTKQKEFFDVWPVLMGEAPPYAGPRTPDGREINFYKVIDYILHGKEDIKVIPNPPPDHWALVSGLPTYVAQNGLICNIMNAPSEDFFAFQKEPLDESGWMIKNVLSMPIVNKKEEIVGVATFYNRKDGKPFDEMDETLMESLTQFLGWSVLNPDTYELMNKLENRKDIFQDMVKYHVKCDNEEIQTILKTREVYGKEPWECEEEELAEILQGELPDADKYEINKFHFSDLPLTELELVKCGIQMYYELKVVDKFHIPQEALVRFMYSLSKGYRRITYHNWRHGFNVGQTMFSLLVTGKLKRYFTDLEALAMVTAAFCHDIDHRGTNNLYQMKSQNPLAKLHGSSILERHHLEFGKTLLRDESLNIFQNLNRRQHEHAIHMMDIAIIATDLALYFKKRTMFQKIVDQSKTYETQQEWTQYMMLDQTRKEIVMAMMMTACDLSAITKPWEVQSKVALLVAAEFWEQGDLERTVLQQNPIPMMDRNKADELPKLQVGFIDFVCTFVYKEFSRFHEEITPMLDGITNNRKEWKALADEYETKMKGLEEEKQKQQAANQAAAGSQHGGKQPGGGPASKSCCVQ
Chain of bovine PDE6 (P23439 2-853 limits assumed): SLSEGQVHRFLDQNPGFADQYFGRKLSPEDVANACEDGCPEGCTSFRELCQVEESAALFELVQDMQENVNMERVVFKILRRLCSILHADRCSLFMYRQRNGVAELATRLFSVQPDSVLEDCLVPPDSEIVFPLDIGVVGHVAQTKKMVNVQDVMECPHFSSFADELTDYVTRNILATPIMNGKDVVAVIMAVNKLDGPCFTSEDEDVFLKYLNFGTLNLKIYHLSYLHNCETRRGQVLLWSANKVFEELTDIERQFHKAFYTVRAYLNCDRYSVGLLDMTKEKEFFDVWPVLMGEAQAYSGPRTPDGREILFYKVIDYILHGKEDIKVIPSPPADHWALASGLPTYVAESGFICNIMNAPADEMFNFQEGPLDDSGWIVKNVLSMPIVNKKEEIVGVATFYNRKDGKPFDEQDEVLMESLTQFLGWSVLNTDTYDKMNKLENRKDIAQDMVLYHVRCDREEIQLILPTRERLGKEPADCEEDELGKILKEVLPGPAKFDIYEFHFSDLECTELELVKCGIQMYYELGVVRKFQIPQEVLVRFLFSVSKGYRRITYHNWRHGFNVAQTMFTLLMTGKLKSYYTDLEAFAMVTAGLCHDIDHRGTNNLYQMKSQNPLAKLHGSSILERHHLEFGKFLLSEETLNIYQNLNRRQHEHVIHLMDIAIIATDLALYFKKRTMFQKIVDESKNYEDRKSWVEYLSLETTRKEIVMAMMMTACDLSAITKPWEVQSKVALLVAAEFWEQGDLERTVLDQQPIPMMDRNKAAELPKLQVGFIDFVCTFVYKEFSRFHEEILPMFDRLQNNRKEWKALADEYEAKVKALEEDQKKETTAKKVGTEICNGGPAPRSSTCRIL
Chain of PDE10A2 (Q9Y233 267-1055): as the sequence (Q9Y233 267-1055) above

SMILES: CCOC(C(=O)c1ccc(-c2cc(OC)c(Cl)c(OC)c2)o1)c1ccc(-c2nnc(C)s2)cc1 (racemic) [Compound 1001, 1-(5-(4-chloro-3,5-dimethoxyphenyl)furan-2-yl)-2-ethoxy-2-(4-(5-methyl-1,3,4-thiadiazol-2-yl)phenyl)ethanone]
- IC50 [1]: > 3000 nM
- IC50 [2]: 0.62 nM
- IC50 [3]: 0.62 nM
- IC50 [4]: 5740 nM
- IC50 [5]: 545 nM

SMILES: CC(C)Cn1c(=O)n(C)c(=O)c2[nH]cnc21 [IBMX]
- IC50 [6]: 2600 nM

SMILES: CCO[C@@H](C(=O)c1ccc(-c2cc(OC)c(Cl)c(OC)c2)o1)c1ccc(-c2nnc(C)s2)cc1 [Compound 3001]
- IC50 [2]: 5.8 nM

SMILES: CCO[C@H](C(=O)c1ccc(-c2cc(OC)c(Cl)c(OC)c2)o1)c1ccc(-c2nnc(C)s2)cc1 [Compound 2001, (S)-1-(5-(4-chloro-3,5-dimethoxyphenyl)furan-2-yl)-2-ethoxy-2-(4-(5-methyl-1,3,4-thiadiazol-2-yl)phenyl)ethanone]
- IC50 [2]: 0.44 nM
